# Where two headings read alike, the source gives them in different places.
# Key:
# MRSA = experiment: microbe, parasite or virus in culture; conditions: for MIC: Staphylococcus aureus
# Description: (§1) The antimicrobial activities of the compounds were measured using the microdilution method. Measurement of the bactericidal activity of lysocin E (0.25 µg ml^−1) and nisin (2 µg ml^−1) with or without ApoA-I was performed according to the National Committee for Clinical Laboratory Standards method. […] For the ∆menA and ∆menB strains, TSB medium was used instead of cation-adjusted-Mueller Hinton broth (CA-MHB) in the microdilution method. Sera and ApoA-I, II were added to the bacterial culture before distributing them into 96-well plates. ApoA-I and ApoA-II antimicrobial activity were evaluated using the RN4220 strain. The protein binding rate of lysocin E against human plasma was determined by a rapid equilibrium dialysis device (Thermo Fisher Scientific, Waltham, MA, USA) according to the manufacturer’s instructions.
# MRSA MR6 strain = experiment: Mouse systemic MRSA infection model, survival ED50; type: in vivo; conditions: ICR female mice; MRSA MR6 i.p. 5.7 × 10^7 CFU in mucin; s.c. at 1 h and 6 h after infection; survival after 5 days; 5 animals/group; logistic regression
# Description: Mouse protocols followed the Regulations for Animal Care and Use of the University of Tokyo under approval by the Graduate School of Pharmaceutical Science at the University of Tokyo (approval nos. 24–55). Mice were housed in a group of at most five in a cage, kept in a room maintained at 23–24 °C, 55% humidity, and 12 h light/12 h dark cycle. For Table 1, clinically isolated MRSA MR6 strain[47] was cultured overnight, suspended in 7% type II porcine stomach mucin supplemented with 0.2 mM FeNH4-citrate and intraperitoneally administered to mice (ICR, female, 4 weeks of age) at 5.7 × 10^7 colony-forming units. Lysocin E (4–0.25 mg kg^−1), vancomycin (8–0.5 mg kg^−1), linezolid (8–0.5 mg kg^−1), or daptomycin (4–0.25 mg kg^−1) were administered subcutaneously to 5 animals/group at 1 h and 6 h after infection. Mouse survival was assessed after 5 days and ED50 values were calculated by multiple logistic regression analysis. For Fig. 1d, the Newman strain was cultured in TSB overnight and cells (4.0 × 10^7 colony-forming units) were washed in phosphate-buffered saline (PBS) were injected into the tail vein of 8–12-week-old female C57BL/6J wild-type mice or Apoa1 homozygous-deficient mice. After 2 h, lysocin E (0.5 mg kg^−1) was administered subcutaneously. After 24 h, the kidneys were harvested and crushed with a BioMasher II (Nippi Incorporated, Tokyo, Japan). The suspensions were diluted with PBS(−), plated on TSB agar medium and the number of colonies was counted.
# S. aureus RN4220 [1] = conditions: for MIC, Control / MIC +rhApoA-I relative to control (fold) / MIC, +rhApoA-I 25µg ml-1: RN4220; for MIC, Control: no rhApoA-I; for MIC +rhApoA-I relative to control (fold) / MIC, +rhApoA-I 25µg ml-1: rhApoA-I 25 µg ml-1
# Description: as §1
# [2] = cited from earlier work
# S. aureus RN4220 [3] = experiment: Direct antimicrobial activity of ApoA-I and ApoA-II; type: cell-based, Staphylococcus aureus; conditions: up to 300 or 600 µg ml^−1; purified bovine and human proteins
# Description: as §1
# S. aureus = experiment: Lysocin E antimicrobial activity-enhancing activity (1 unit decreases the MIC of lysocin E to 1 µg ml−1); type: cell-based, Staphylococcus aureus; conditions: ApoA species
# Description: Calf serum (10 ml) was added to 15 ml EtOH (60% v/v) and the mixture was centrifuged for 15 min. The collected supernatant was evaporated and suspended in 8 ml Milli-Q water (fraction [fr.] II). Fr. II with formic acid (0.1%) was applied to 10 ml of ODS resin (Waters Corporation, Milford, MA, USA). After washing with 25% EtOH and then 50% EtOH, the resin was eluted with 75% EtOH containing 0.1% formic acid. The eluted sample was evaporated and dissolved in 0.8 ml buffer A (10 mM phosphate buffer [pH 7.1], 6 M urea; Fr. III). Fr. III was applied to the Superose 12 10/300 GL gel filtration column (GE Healthcare) and eluted with the AKTApurifier system (GE Healthcare). The elution was performed in buffer A at a flow rate of 0.5 ml min^−1 and 60 fractions (0.5 ml per fr.) were collected in 2-ml tubes. All fractions, except for Fr. I, were dialysed in 10 mM phosphate buffer (pH 7.1) before assessment of their activities. Protein concentrations were measured using Coomassie Plus^TM protein assay reagent (Thermo Fisher) with bovine serum albumin as the standard. Amino acid sequence analysis was performed by in-gel digestion and mass spectrometric analysis. One unit was defined as the activity that decreases the MIC of lysocin E to 1 µg ml^−1.
# S. aureus ∆menA strain = experiment: MIC by microdilution in TSB; type: cell-based, Staphylococcus aureus; conditions: TSB medium; two independent experiments
# Description: as §1
# S. aureus ∆menB strain = experiment: MIC by microdilution in TSB; type: cell-based, Staphylococcus aureus; conditions: TSB medium; two independent experiments
# Description: as §1
# rhApoA-I = biological target: T1, rhApoA-I (Homo sapiens, UniProt P02647); experiment: rhApoA-I pull-down assay (antimicrobial bound to rhApoA-I, UPLC-MS); type: binding; set-up: unit not given here
# T1 construct: 1 65 146 160 185 243; made in house; host or cells: E. coli BL21(DE3)/pLysS, pET20b (pET-hApoWT)
# T1 sequence (P02647 25-267): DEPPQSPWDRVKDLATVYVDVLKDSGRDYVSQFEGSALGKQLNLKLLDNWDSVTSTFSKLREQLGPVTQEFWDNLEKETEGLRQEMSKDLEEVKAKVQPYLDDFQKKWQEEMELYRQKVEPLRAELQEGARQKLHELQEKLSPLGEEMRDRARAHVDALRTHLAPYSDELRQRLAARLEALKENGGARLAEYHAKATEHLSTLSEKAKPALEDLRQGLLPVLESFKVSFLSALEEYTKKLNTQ
# Description: Menaquinone 4 (MK-4; 100 µl of 1.25 mM) was mixed with N-dodecyl β-D-maltoside (250 µl of 100 mM) in the presence or absence of purified lipid II or lipids (300 µl of 70 µM). Lipid II fraction was prepared from S. aureus RN4220 treated with moenomycin, followed by park nucleotide removal. The mixture was dried in vacuo and dissolved in 2 ml of water. The micelles were then filtered through a 0.45-µm polyvinylidene difluoride membrane filter and a 200 µl aliquot of the filtered micelles were used to evaluate the binding of the antimicrobials in the presence of rhApoA-I. Briefly, 5 µg of antimicrobials was added to the aliquots and the mixture was incubated for 15 min on ice in the presence of 4 µg rhApoA-I. The mixture was then transferred to His-Tag magnetic beads (Dynabeads, Thermo Fisher). The bound protein was then eluted with 250 mM imidazole and then eluted antimicrobials were quantified using an ACQUITY ultra-performance liquid chromatography (UPLC) H-Class PLUS attached to Xevo G2-XS QTof system (Waters Corporation). After injecting the sample into a 2.1 × 100 mm Acquity UPLC HSS T3 1.8 μm column (Waters Corporation) equilibrated with 0.3 mL min^–1 of 30% acetonitrile and 0.1% formic acid in water, the column was developed with a linear gradient to 60% acetonitrile and 0.1% formic acid in water over 10 min. The eluate was continuously applied to a Waters Xevo G2-XS QTof mass spectrometer and the spectra were obtained using MassLynx 4.1 (Waters Corporation) in electrospray ionisation (ESI)-positive mode that was analysed by UNIFI Scientific Information System ver. 1.9 (Waters Corporation).
compound,measurement,setting,value
"CCCCCCCCCC(=O)N[C@@H](Cc1c[nH]c2ccccc12)C(=O)N[C@H](CC(N)=O)C(=O)N[C@@H](CC(=O)O)C(=O)N[C@@H]1C(=O)NCC(=O)N[C@@H](CCCN)C(=O)N[C@@H](CC(=O)O)C(=O)N[C@H](C)C(=O)N[C@@H](CC(=O)O)C(=O)NCC(=O)N[C@H](CO)C(=O)N[C@@H]([C@H](C)CC(=O)O)C(=O)N[C@@H](CC(=O)c2ccccc2N)C(=O)O[C@@H]1C [Daptomycin, daptomycin]",Antimicrobial activity (MIC),MRSA,0.5 µg/mL
same,MIC in 10% bovine serum,MRSA,1 µg/mL
same,Therapeutic effect (ED50),MRSA MR6 strain,0.73 mg/kg
same,"MIC, Control",S. aureus RN4220 [1],0.5 µg/mL
same,MIC +rhApoA-I relative to control (fold),S. aureus RN4220 [1],1/1
same,"MIC, +rhApoA-I 25µg ml-1",S. aureus RN4220 [1],0.5 µg/mL
same,"Protein binding (%, human plasma)",[2]; human plasma,90–96[52] %
"CC(=O)NC[C@H]1CN(c2ccc(N3CCOCC3)c(F)c2)C(=O)O1 [Linezolid, linezolid]",MIC,"MRSA; MRSA, read-out: Antimicrobial activity (MIC)",2 µg/mL
same,MIC,"MRSA; MRSA, read-out: MIC in 10% bovine serum",2 µg/mL
same,Therapeutic effect (ED50),MRSA MR6 strain,3.8 mg/kg
same,"Protein binding (%, human plasma)",[2]; human,18[52] %
"CN[C@H](CC(C)C)C(=O)N[C@H]1C(=O)N[C@@H](CC(N)=O)C(=O)N[C@H]2C(=O)N[C@H]3C(=O)N[C@H](C(=O)N[C@H](C(=O)O)c4cc(O)cc(O)c4-c4cc3ccc4O)[C@H](O)c3ccc(c(Cl)c3)Oc3cc2cc(c3O[C@@H]2O[C@H](CO)[C@@H](O)[C@H](O)[C@H]2O[C@H]2C[C@](C)(N)[C@H](O)[C@H](C)O2)Oc2ccc(cc2Cl)[C@H]1O [Vancomycin, vancomycin]",MIC in 10% bovine serum,"MRSA; MRSA, 10% bovine serum in medium",1 µg/mL
same,Antimicrobial activity (MIC),"MRSA; MRSA, microdilution, no serum",1 µg/mL
same,Therapeutic effect (ED50),MRSA MR6 strain,4.2 mg/kg
same,"MIC, Control",S. aureus RN4220 [1],1 µg/mL
same,MIC +rhApoA-I relative to control (fold),S. aureus RN4220 [1],1/1
same,"MIC, +rhApoA-I 25µg ml-1",S. aureus RN4220 [1],1 µg/mL
same,"Protein binding (%, human plasma)",[2]; human plasma,10–50[51] %
ApoA-I: purified bovine and human apolipoprotein A-I,Inhibition of S. aureus growth by the protein alone,S. aureus RN4220 [3],did not inhibit S. aureus growth
ApoA-II: purified bovine and human apolipoprotein A-II,Inhibition of S. aureus growth by the protein alone,S. aureus RN4220 [3],did not inhibit S. aureus growth
hApoA-II: purified human ApoA-II (Calbiochem),Specific activity for lysocin E antimicrobial enhancing activity,S. aureus,5900 unit mg-1 protein
nisin (ITSISLCTPGCKTGALMGCNMKTATCHCSIHVSK),"MIC, Control",S. aureus RN4220 [1],8 µg/mL
same,MIC +rhApoA-I relative to control (fold),S. aureus RN4220 [1],1/4
same,"MIC, +rhApoA-I 25µg ml-1",S. aureus RN4220 [1],2 µg/mL
same,"MIC, Control",S. aureus RN4220 [1]; with lipid II 25 µg ml-1,> 32 µg/mL
same,"MIC, +rhApoA-I 25µg ml-1",S. aureus RN4220 [1]; with lipid II 25 µg ml-1,> 32 µg/mL
same,"Antimicrobial activity (MIC), WT","S. aureus RN4220 [1]; wild-type RN4220, TSB medium, two independent experiments",16
same,"Antimicrobial activity (MIC), ∆menA",S. aureus ∆menA strain,16
same,"Antimicrobial activity (MIC), ∆menB",S. aureus ∆menB strain,16
same,Nisin binding to rhApoA-I (pull-down),"rhApoA-I; CL, replicate 1",0.284
same,Nisin binding to rhApoA-I (pull-down),"rhApoA-I; CL, replicate 2",0.1757
same,Nisin binding to rhApoA-I (pull-down),"rhApoA-I; CL, replicate 3",0.257
same,Nisin binding to rhApoA-I (pull-down),"rhApoA-I; LTA, replicate 1",0.1611
same,Nisin binding to rhApoA-I (pull-down),"rhApoA-I; LTA, replicate 2",0.2119
same,Nisin binding to rhApoA-I (pull-down),"rhApoA-I; LTA, replicate 3",0.3298
same,Nisin binding to rhApoA-I (pull-down),"rhApoA-I; Lipid II, replicate 1",1.947
same,Nisin binding to rhApoA-I (pull-down),"rhApoA-I; Lipid II, replicate 2",4.556
same,Nisin binding to rhApoA-I (pull-down),"rhApoA-I; Lipid II, replicate 3",3.824
same,Nisin binding to rhApoA-I (pull-down),"rhApoA-I; PG, replicate 1",0.4181
same,Nisin binding to rhApoA-I (pull-down),"rhApoA-I; PG, replicate 2",0.2568
same,Nisin binding to rhApoA-I (pull-down),"rhApoA-I; PG, replicate 3",0.2266
same,Nisin binding to rhApoA-I (pull-down),"rhApoA-I; Vehicle (no lipid added), replicate 1",0.2456
same,Nisin binding to rhApoA-I (pull-down),"rhApoA-I; Vehicle (no lipid added), replicate 2",0.223
same,Nisin binding to rhApoA-I (pull-down),"rhApoA-I; Vehicle (no lipid added), replicate 3",0.2718
rhApoA-I: recombinant human ApoA-I,Specific activity for lysocin E antimicrobial enhancing activity,S. aureus,6500 unit mg-1 protein

# From PMC8568920, “Serum apolipoprotein A-I potentiates the therapeutic efficacy of lysocin E against Staphylococcus aureus” (Nature Communications, 2021)
